The source of these data is patent US8686041B2, “Inhibition of ornithine aminotransferase for the treatment of proliferative disorders” (Hadasit Medical Research Services & Development, Ltd., priority 2006, dated 2014).

The test system of experiment [1] is HepG2. Kind of experiment: αFP secretion by HCC cell lines with Gabaculine analogue 8. In kind it is cell-based, human. As to conditions: 48 hours. On the procedure:
(§1) 1×10^5 cells/well of each of Hep3b and HepG2 hepatocellular carcinoma cell lines were plated in triplicate and incubated at 37° C. Gabaculine analogue 8 was added to wells at varying concentrations (0.1 μg/ml, 1 μg/ml, 10 μg/ml and 50 μg/ml). Cells returned to incubator for further incubation of 48 hours. In the fourth day of the experiment, one ml of supernatant from each well was transferred to eppendorf tubes and analyzed for αFP concentration. αFP levels were checked using the Abbott Diagnostic AxSYM system. Encouraged by the in vitro and in vivo results of inhibiting OAT using Gabaculine, the inventors next examined the in vitro effect of a further OAT inhibitor, Gabaculine analogue 8 (LHJ-II-79), on AFP secretion from two different HCC cell lines. Therefore, Hep3b and HepG2 hepatocellular carcinoma cell lines were detached from culture dishes using trypsin-EDTA, re-plated in triplicates in 12 well culture dishes (1×10^5 cells/well) and incubated at 37° C. Gabaculine analogue 8 was added to wells at varying concentrations (0.1 μg/ml, 1 μg/ml, 10 μg/ml and 50 μg/ml). After 48 hours, cell supernatant was analyzed for AFP concentration.

Experiment [2] relates to HEP3B. The description is as above. The format is cell-based, human. The note with it: 48 hours. On the procedure: as §1
Where [3] appears, read: 0.1-50 μg/ml, effect concentration dependent.

As to `Cl.NC1CC(C(=O)O)CC1=C=C(C(F)(F)F)C(F)(F)F` (stereo not shown) [analogue 8, 1-carboxy-3-amino-4-bis(trifluoromethyl)vinylidene cyclopentane hydrochloride], the “AFP secretion by the cells, in words” value in experiment [1] (setting [3]) and in experiment [2] (setting [3]) was “significant reduction of AFP secretion” each time. Also, the “AVG results AF” value in experiment [1] (EXP. I, 10 ug/ml, 1:100 dil, CONTROL 34.19) came to 37.98 ng/mL; in experiment [1] (EXP. I, 50 ug/ml, 1:100 dil, CONTROL 34.19), 23.54 ng/mL; in experiment [1] (EXP. II, 0.1 ug/ml, 1:100 dil, CONTROL 11.93), 11.92 ng/mL; in experiment [1] (EXP. II, 1 ug/ml, 1:100 dil, CONTROL 11.93) it was 12.85 ng/mL; in experiment [1] (EXP. II, 10 ug/ml, 1:100 dil, CONTROL 11.93), 11.38 ng/mL; in experiment [1] (EXP. II, 50 ug/ml, 1:100 dil, CONTROL 11.93), 8.54 ng/mL. In addition, the “AVG results AF” value in experiment [1] (EXP. III, 10 ug/ml, 1:100 dil, CONTROL 12.07) turned out to be 10.67 ng/mL; in experiment [1] (EXP. III, 50 ug/ml, 1:100 dil, CONTROL 12.07), 7.57 ng/mL; in experiment [1] (EXP. IV, 10 ug/ml, 1:50 dil, CONTROL 13.32), 12.74 ng/mL; in experiment [1] (EXP. IV, 50 ug/ml, 1:50 dil, CONTROL 13.32), 8.94 ng/mL; in experiment [2] (EXP. I, 10 ug/ml, 1:5 dil, CONTROL 42.52), 37.96 ng/mL; in experiment [2] (EXP. I, 50 ug/ml, 1:5 dil, CONTROL 42.52), 18.52 ng/mL. The “AVG results AF” value in experiment [2] (EXP. II, 0.1 ug/ml, 1:5 dil, CONTROL 13.42) amounted to 12.66 ng/mL; in experiment [2] (EXP. II, 1 ug/ml, 1:5 dil, CONTROL 13.42), 11.92 ng/mL; in experiment [2] (EXP. II, 10 ug/ml, 1:5 dil, CONTROL 13.42), 9.63 ng/mL; in experiment [2] (EXP. II, 50 ug/ml, 1:5 dil, CONTROL 13.42), 9.37 ng/mL; in experiment [2] (EXP. III, 10 ug/ml, 1:5 dil, CONTROL 11.39) it was 10.97 ng/mL; in experiment [2] (EXP. III, 50 ug/ml, 1:5 dil, CONTROL 11.39), 6.98 ng/mL. In addition, the “AVG results AF” value in experiment [2] (EXP. IV, 10 ug/ml, 1:2 dil, CONTROL 18.45) stood at 13.73 ng/mL; in experiment [2] (EXP. IV, 50 ug/ml, 1:2 dil, CONTROL 18.45) it was 11.30 ng/mL.
